According to ChEMBL document CHEMBL1240308, “Elevated levels of oxidized cholesterol metabolites in Lewy body disease brains accelerate alpha-synuclein fibrilization” (Nat Chem Biol, 2006):
Activity calls are given as the source filed them. No cut-off for these calls is given here.

What was measured:
[1] = biological target: Alpha-synuclein (Homo sapiens) (UniProt P37840); assay: Induction of alpha-synuclein aggregation in PBS buffer assessed as transition of alpha-synuclein from natively unfolded monomer to cross-beta-sheet conformation after 72 hrs by CD spectroscopy
[2] = biological target: Alpha-synuclein (Homo sapiens) (UniProt P37840); assay: Induction of alpha-synuclein aggregation in PBS buffer assessed as alpha-synuclein monomer depletion after 48 hrs by size exclusion chromatography
[3] = biological target: Alpha-synuclein (Homo sapiens) (UniProt P37840); assay: Induction of alpha-synuclein aggregation in PBS buffer assessed as transition of alpha-synuclein from natively unfolded monomer to cross-beta-sheet conformation after 48 hrs by CD spectroscopy
[4] = biological target: Alpha-synuclein (Homo sapiens) (UniProt P37840); assay: Induction of alpha-synuclein aggregation in PBS buffer assessed as alpha-synuclein monomer depletion after 96 hrs by size exclusion chromatography
SH-SY5Y [5] = assay: Cytotoxicity against human SH-SY5Y cells overexpressing alpha-synuclein at 20 uM after 48 hrs by LDH assay; type: cell-based
[6] = biological target: Alpha-synuclein (Homo sapiens) (UniProt P37840); assay: Induction of alpha-synuclein aggregation in PBS buffer assessed as alpha-synuclein monomer depletion after 72 hrs by size exclusion chromatography
[7] = biological target: Alpha-synuclein (Homo sapiens) (UniProt P37840); assay: Induction of alpha-synuclein aggregation in PBS buffer assessed as fluorescence after 330 hrs by Thioflavin T fluorescence assay
[8] = biological target: Alpha-synuclein (Homo sapiens) (UniProt P37840); assay: Induction of alpha-synuclein aggregation in PBS buffer assessed as transition of alpha-synuclein from natively unfolded monomer to cross-beta-sheet conformation after 96 hrs by CD spectroscopy
SH-SY5Y [9] = assay: Cytotoxicity against human SH-SY5Y cells overexpressing alpha-synuclein at 20 uM after 48 hrs by MTT assay; type: cell-based
[10] = biological target: Alpha-synuclein (Homo sapiens) (UniProt P37840); assay: Induction of alpha-synuclein aggregation in PBS buffer assessed as fluorescence after 96 hrs by Thioflavin T fluorescence assay
[11] = biological target: Alpha-synuclein (Homo sapiens) (UniProt P37840); assay: Induction of alpha-synuclein aggregation in PBS buffer assessed as fluorescence after 48 hrs by Thioflavin T fluorescence assay
[12] = biological target: Alpha-synuclein (Homo sapiens) (UniProt P37840); assay: Induction of alpha-synuclein aggregation in PBS buffer assessed as fluorescence after 72 hrs by Thioflavin T fluorescence assay
[13] = biological target: Alpha-synuclein (Homo sapiens) (UniProt P37840); assay: Induction of alpha-synuclein aggregation in PBS buffer assessed as transition of alpha-synuclein from natively unfolded monomer to cross-beta-sheet conformation after 330 hrs by CD spectroscopy
[14] = Cytotoxicity against human SH-SY5Y cells overexpressing alpha-synuclein after 48 hrs by MTT assay; type: cell-based; conditions: read-out: LD50
[15] = Cytotoxicity against human SH-SY5Y cells overexpressing alpha-synuclein after 48 hrs by LDH assay; type: cell-based; conditions: read-out: LD50
[16] = biological target: Alpha-synuclein (Homo sapiens) (UniProt P37840); assay: Induction of alpha-synuclein aggregation in PBS buffer assessed as formation of alpha-synuclein fibrils after 96 hrs by electron microscopy
[17] = biological target: Alpha-synuclein (Homo sapiens) (UniProt P37840); assay: Induction of alpha-synuclein aggregation in PBS buffer assessed as fluorescence after 44 to 305 hrs in presence of competitive Schiff-base inhibitor aminoguanidine by Thioflavin T fluorescence assay
[18] = biological target: Alpha-synuclein (Homo sapiens) (UniProt P37840); assay: Induction of alpha-synuclein aggregation in PBS buffer assessed as formation of alpha-synuclein fibrils after 48 hrs by electron microscopy

Row | Activity [1] [%] | Activity [6] [%] | SMILES | Activity [2] [%] | Activity [3] [%] | Activity [4] [%] | Activity (SH-SY5Y [5]) | Activity [7] [a.u.] | Activity [8] [%] | Activity (SH-SY5Y [9]) | Activity [10] [a.u.] | Activity [11] [a.u.] | Activity [12] [a.u.] | Activity [13] [%] | CC50 at 48 h [14] [µM] | CC50 at 48 h [15] [µM] | Activity [16] | Activity [17] | Activity [18]
1 | 4 | 19 | CC(C)CCC[C@@H](C)[C@H]1CC[C@H]2[C@@H]3CC=C4C[C@@H](O)CC[C@]4(C)[C@H]3CC[C@]12C [CHOLESTEROL] | 2 | 0 | 70 | Non-toxic | 120 | 4 | Non-toxic | 30 | 0 | 25 | 100 | – | – | – | – | –
2 | – | – | CC(C)CCC[C@@H](C)[C@H]1CC[C@H]2[C@H](CC(=O)O)[C@@H]([C@@]3(C)CC[C@H](O)CC3=O)CC[C@]12C | 50 | 40 | 70 | – | 500 | 60 | – | 410 | 220 | 330 | 100 | 55 | 55 | Active | Active | Active
